The numbers were not newly measured in PMC3828007 (CPT: Pharmacometrics & Systems Pharmacology, 2013), which cites them from elsewhere.

pEC50: −log10 of the molar value.

One may read the pEC50 as the negative decadic logarithm of the EC50, by convention in mol/L.

The subject of one series is NET (plasma DHPG). The note with it: read-out: in vivo EC50 for inhibitory effect on plasma DHPG.

`COc1ccc(C(CN(C)C)C2(O)CCCCC2)cc1` (centres unmarked) [venlafaxine]: the CYP inhibition liability entry with CYP is reported as “moderate”. For `CNCC[C@H](Oc1cccc2ccccc12)c1cccs1` [duloxetine], the pEC50 in the series with NET (plasma DHPG) is […].
